Test results taken from patent US9572831B2, “Composition and method for sulfated non-anticoagulant low molecular weight heparins in cancer and tumor metastasis” (priority 2013, dated 2017).

What was measured:
MPanc96-luc cells [1] = format: in vivo, athymic nude mice; details: S-NACH 20 mg/kg, tinzaparin 5 mg/kg
Procedure: MPanc96-luc cells were harvested as described above and were orthotopically implanted (2×10^5 cells in 50 μl PBS per mouse) in the pancreas of anesthetized athymic nude mice. Just before treatment initiation, animals (n=10 per group) were randomized by tumor mass detected by an in vivo imaging system (IVIS, described below). Heparin derivatives S-NACH at 20 mg/kg and tinzaparin at 5 mg/kg were administered subcutaneously daily. Gemcitabine at 100 mg/kg was injected intraperitoneally twice a week alone or in combination with either S-NACH or tinzaparin. All mice used for treatment response evaluations were euthanized after 28 days. See Table 2 for the protocol of the study. Imaging was performed once per week to monitor tumor growth. Mice bearing MPanc96-luc tumors were anaesthetized using isoflurane, injected subcutaneously with 50 μl D-luciferin (30 mg/ml), then imaged. Photographic and luminescence images were taken at constant exposure time. Xenogen IVIS® Living Image software version 3.2 was used to quantify non-saturated bioluminescence in regions of interest. Light emission between 5.5×10^6-7.0×10^10 photons was assumed to be indicative of viable luciferase-labeled tumor cells while emissions below this range were considered as background. Bioluminescence was quantified as photons/second for each region of interest. In vivo tumor kinetic growth and metastasis were monitored by signal intensity. Ex vivo imaging was performed to confirm the signal intensity in the tumors after the termination. All specimens were analyzed by histology for routine analysis. Specimens were fixed in 10% buffered formalin, processed routinely, and embedded in paraffin. Then, after fixation, the specimens were transferred into the embedding chambers to hold the specimens in position until the paraffin became solid to prevent further rotation. Four μm serial sections were cut, and then stained using haematoxylin and eosin. Sections were evaluated for various pathologic parameters using a light microscope (Leica, Buffalo Grove, Ill.).

MPanc96-luc cells [2] = assay: CAM cancer implant model, MPanc96; format: in vivo, chick embryo; details: 1.0 ug/CAM
Procedure: The CAM cancer implant model was used in conjunction with the present invention to study the effect of heparin derivatives (S-NACH versus tinzaparin) along with gemcitabine at 1.0 μg/CAM on tumor angiogenesis and tumor growth. MPanc96-luc cells in exponential growth phase were harvested as described above. One×10^6 cells in 30 μl of medium were mixed with an equal volume of Matrigel and implanted in the chick Chorioallantoic membrane (CAM) model of 7-day old chick eggs. The effect of these treatments was determined after 8 days of implantation. Results are presented as a mean tumor weight (g) per treatment group and tumor hemoglobin (mg/dl)±SEM, n=10 per group. For the Matrigel portions of the models, tumor angiogenesis is evaluated with tumor weight analysis and Drabkin's Assay for hemoglobin concentration (angiogenesis index). PBS was used as a negative control while breast cancer cells were used as a positive control and to initiate tumorigenesis. The tumor cells were MCF-7/DXR (human breast adenocarcinoma), and 1-2 million cells per CAM were used. […] By re-weighing the tubes with the tumor inside, the weight of the tumor itself could be recorded. […] Specimens were centrifuged, and the hemoglobin content was measured using Drabkin's reagent (Sigma, St Louis, Mo.), run in duplicate using the supernatant. […]

human umbilical vein = assay: In vitro human vessel perfusion model; format: cell-based; details: FIG. 3
Description: Based on published data obtained on the tumor/vessel adherence characteristics in this model [Mousa S A., Comparative pharmacodynamic assessment of the antiangiogenesis activity of heparin and low-molecular-weight heparin fractions: structure function relationship, Clin Appl Thromb Hemost, 2013, 19(1):48-54], umbilical vein was utilized for all studies. Following informed consent, fresh umbilical cord was obtained, using a sterile technique, from the placenta following normal delivery […] from patients at local hospitals. Approximately 20 cm of the cord is excised, rinsed and wiped free of blood using cold 0.9% saline and sterile gauze. Then cold saline was used to flush the vein clean of blood. Two sections of umbilical cord (approximately 3 cm each) are cut longitudinally to expose the vein surface and are pinned to the silastic base of the chamber using 27 G×1 inch needles. […]
The vein segments were perfused for 24 hours with cancer cells in platelet-rich plasma (PRP) under venous flow conditions (70 ml/min). […] Blood gases of the perfusate were measured 15 minutes after the start and just prior to the end of the perfusion period to confirm that physiological conditions were maintained. […] Statistical significance was determined by using a paired t-test. […]

Substance: tinzaparin
- tumor necrosis (histology) (MPanc96-luc cells [1]): modest increase in necrotic area
- tumor growth or tumor angiogenesis (MPanc96-luc cells [2]): maximally inhibited
- pancreatic cancer cell adhesion (human umbilical vein): comparable anti-adhesive potency
